Common to all, as to assay: DTP human tumour cell line panel, 48 h
Test [1] deals with A498 renal.
The test system of test [2] is SF-268 CNS.
The subject of test [3] is NCI/ADR-RES ovarian.
The subject of test [4] is OVCAR-5 ovarian.
For test [5], the system named is CAKI-1 renal.
Test [6] deals with SN12C renal.
Test [7] deals with IGROV1 ovarian.
For test [8], the system named is OVCAR-4 ovarian.
Test [9] deals with MDA-N.
Test [10] has as its system HL-60(TB) leukemia.

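The compound was tested at five concentrations on cells cultured in 96-well plates, with a 48-hour exposure period. Here, GI50 denotes the concentration required for 50% inhibition of growth. TGI denotes the concentration required for complete inhibition of growth.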

Drawing on PubChem BioAssay (NCI), this text covers TGI and GI50 for 21 compounds.

The TGI is the concentration giving total growth inhibition. Low values mean more potent growth arrest, high ones less potent growth arrest. For `C[C@H]1C(=O)C2=C[C@H]1CCC(=O)[C@]1(C)CCCC(C)(C)[C@H]1C[C@H]2O`, the TGI was greater than 100 µM in test [1]; 64 µM in test [2]; 74.2 µM in [3]; greater than 100 µM in test [4]; greater than 100 µM in test [5]; 94.2 µM in test [6]. Also, the concentration for total growth inhibition (TGI) in [7] is greater than 100 µM; in test [8], greater than 100 µM; in test [9] it was greater than 100 µM; in [10], 39.7 µM.

With `COc1ccc(N=Nc2ccc3oc(=O)c(C(=O)Nc4ccc(OC)cc4)cc3c2)cc1`, the concentration for total growth inhibition (TGI) in test [1] was 9.17 µM; in test [2], 48.8 µM; in [3] it was 51.7 µM; in test [4] it was 50.6 µM; in test [5] it was greater than 100 µM; in test [6], 45.2 µM. Moreover, the total growth inhibition concentration (TGI) in [7] was 44 µM; in test [8], 75.3 µM; in [9], greater than 100 µM; in [10], 30.8 µM.

In the case of `COc1ccc(/C=N/NC(=O)c2ccccc2Nc2ccccc2C(=O)N/N=C/c2ccc(OC)c(OC)c2)cc1OC`, the TGI in [1], in [2], in test [3], in test [4], in [5] and in test [6] was greater than 100 µM each time. The TGI in test [7], in test [8], in test [9] and in test [10] was greater than 100 µM each time.

Regarding `Cc1cc(C)n(CN(Cn2nc(C)cc2C)c2ccc(N(Cn3nc(C)cc3C)Cn3nc(C)cc3C)cc2)n1`, the TGI in test [1] was determined as 63.2 µM; in test [2] it was 69.7 µM; in test [3] it was 43.2 µM; in test [4] it was 51.1 µM; in test [5], 62.4 µM; in [6], 51.9 µM. For the same compound, the total growth inhibition concentration (TGI) in [7] was 50.7 µM; in [8] it was 43 µM; in test [9], 38.4 µM; in test [10], greater than 100 µM.

With `Cc1ccc(-c2cn3c(nc4ccccc43)c(C)n2)cc1`, the TGI in test [1] was greater than 77.5 µM; in test [2], greater than 100 µM; in [3], greater than 100 µM; in test [4], greater than 100 µM; in [5], greater than 100 µM; in test [6], greater than 100 µM. In addition, the concentration for total growth inhibition (TGI) is greater than 31.6 µM in test [7], greater than 100 µM in test [8], greater than 100 µM in test [9] and greater than 100 µM in test [10].

Consider `CSc1nc(Cl)c2c(n1)Sc1ncnn1C2O` (stereo unspecified), for which the TGI in test [1] was found to be 38.1 µM; in test [2] it was 26.7 µM; in test [3], 54.6 µM; in [4], 32.3 µM; in test [5] it was 25.4 µM; in [6], 24 µM. Moreover, the TGI in test [7] was determined as 34.2 µM; in test [8] it was 29.6 µM; in test [9], 20.5 µM; in [10] it was 14.8 µM.

As for `CC(C)(C)OC(=O)N1CC(COS(C)(=O)=O)c2ccc(O)cc21` (stereo unspecified), the concentration for total growth inhibition (TGI) in [1] came to 4.38 µM; in test [2], 4.33 µM; in test [3], 4.07 µM; in [4], 5.86 µM; in [5], 9.62 µM; in test [6], 6.77 µM. In addition, the TGI in test [7] came out at 12.1 µM; in test [8], 3.13 µM; in [9], 3.98 µM; in test [10], 3.98 µM.

Consider `O=C1c2c(ccc3c2CCCC3)CC12Cc1ccccc1C2`, for which the concentration for total growth inhibition (TGI) was 77.5 µM in [1]; greater than 100 µM in test [2]; greater than 100 µM in [3]; greater than 67.6 µM in test [4]; greater than 77.7 µM in test [5]; greater than 100 µM in test [6]. Besides, the TGI was greater than 100 µM in [7], greater than 100 µM in test [8], greater than 100 µM in [9] and 38.8 µM in [10].

With `CC(C)Oc1c(O)c2c3c(oc(=O)n3C=CC2c2ccccc2F)c1OC(C)C` (stereo unspecified), the total growth inhibition concentration (TGI) in [1] is greater than 100 µM; in test [2] it was greater than 100 µM; in test [3], greater than 100 µM; in [4], 42.9 µM; in [5] it was greater than 100 µM; in test [6], greater than 100 µM. Also, the total growth inhibition concentration (TGI) in test [7] was greater than 100 µM; in [8], greater than 100 µM; in test [9], greater than 100 µM; in test [10], 44.3 µM.

Take `COCN1C(=O)[C@@H]2C[C@@H](OC/C=C/CBr)CN2C(=O)c2ccccc21`: the concentration for total growth inhibition (TGI) is 66.4 µM in test [1]; 83.4 µM in test [2]; greater than 100 µM in test [3]; 49.7 µM in test [4]; 38.7 µM in test [5]; 33.3 µM in test [6]. Further, the total growth inhibition concentration (TGI) in test [7] was 26.5 µM; in [8], 35.7 µM; in test [9] it was 40.3 µM; in [10], greater than 100 µM.

For `CN(C)/C=C/c1ccnc2c1C(=O)c1ccccc1C2=O`, the concentration for total growth inhibition (TGI) was greater than 85.6 µM in test [1]; greater than 69 µM in test [2]; 57.4 µM in [3]; 32.5 µM in test [4]; 50.8 µM in [5]; 19.8 µM in [6]. Moreover, the total growth inhibition concentration (TGI) in test [7] was 35.2 µM; in test [8] it was 66 µM; in test [9] it was 3.03 µM; in test [10], greater than 55.5 µM.

In the case of `COC(=O)[C@H]1ON2O[C@H](OC3CCCC[C@@H]3c3ccccc3)C[C@@H]3CC[C@H]1[C@@]32C` (stereo partly specified), the TGI in [1], in [2], in test [3], in test [4], in test [5] and in test [6] was greater than 100 µM in each case. For the same compound, the TGI in [7] was greater than 100 µM; in test [8] it was greater than 100 µM; in [9], greater than 100 µM; in test [10], 98.5 µM.

Consider `CN(C)CCCN1c2ccc3ccccc3c2Sc2cccc(Cl)c21`, for which the total growth inhibition concentration (TGI) in test [1] was 25.8 µM; in test [2] it was 32.5 µM; in test [3] it was 23.4 µM; in [4], 17.7 µM; in test [5] it was 16.6 µM; in test [6], 20.3 µM. The concentration for total growth inhibition (TGI) in test [7] came out at 5.85 µM; in [8], 13.8 µM; in [9] it was 5.51 µM; in test [10], 3.99 µM.

Take `O=C1N[C@@H](c2c[nH]c3ccc(Br)cc23)C(=O)N[C@H]1c1c[nH]c2ccc(Br)cc12`: the TGI is 18.5 µM in test [1]; 26.3 µM in test [2]; greater than 100 µM in test [3]; 28.8 µM in test [4]; 30.4 µM in [5]; 27.4 µM in test [6]. For the same compound, the TGI in [7] is 29.4 µM; in test [8], 24 µM; in test [9], 20.7 µM; in test [10], 26.6 µM.

Consider `CC1=CC(=O)C[C@]2(C)[C@@H](O)CC(C(C)CO)C[C@@H]12` (stereo partly specified), for which the TGI in [1], in test [2], in test [3], in test [4], in [5] and in test [6] was greater than 100 µM each time. The TGI in [7], in [8], in test [9] and in [10] was greater than 100 µM throughout.

As to `COc1c(-c2ccc3c(c2)OCO3)oc2cc3c(c(OC)c2c1=O)OCO3`, the TGI was 50.3 µM in test [1]; 44.2 µM in [2]; 85.5 µM in test [3]; greater than 100 µM in [4]; 62.4 µM in [5]; 47.1 µM in test [6]. The concentration for total growth inhibition (TGI) was determined as 55.1 µM in test [7], 70.1 µM in test [8], 44.4 µM in test [9] and 4.1 µM in test [10].

For `O=C(O)CCCCCNC(=O)CCC(CN(CC(=O)OCc1ccccc1)CC(=O)OCc1ccccc1)N(CC(=O)OCc1ccccc1)CC(=O)OCc1ccccc1` (stereo unspecified), the TGI in test [1] was determined as 32.2 µM; in test [2] it was 43.3 µM; in test [3], 43.1 µM; in [4], 32.6 µM; in test [5], 33.3 µM; in [6], 36.2 µM. Further, the total growth inhibition concentration (TGI) is 33.8 µM in test [7], 32.5 µM in test [8], 34.8 µM in test [9] and 32.8 µM in test [10].

With `O=S(=O)(CC#CCS(=O)(=O)c1ccccc1)c1ccccc1`, the total growth inhibition concentration (TGI) in test [1] is 36.3 µM; in test [2] it was 12.5 µM; in test [3], greater than 83 µM; in test [4], 19.7 µM; in test [5], 3.42 µM; in test [6], 12.4 µM. Moreover, the total growth inhibition concentration (TGI) was determined as 2.94 µM in [7], 3.71 µM in [8], 4.16 µM in test [9] and 16.1 µM in [10].

In general, GI50 refers to the concentration giving 50% growth inhibition. `CC(=O)CC(=O)Nn1c(-c2cccs2)nc2ccc(I)cc2c1=O`: in test [1], the GI50 was 19.9 µM. Besides, the TGI is 43.1 µM in test [1]; greater than 100 µM in test [2]; greater than 94.4 µM in [3]; greater than 100 µM in test [4]; greater than 74 µM in [5]; greater than 100 µM in [6]. Also, the TGI in test [7], in [8], in test [9] and in [10] was greater than 100 µM throughout.

For the compound `Fc1ccccc1N=c1oc2ccc(Br)cc2cc1-c1nc2ccccc2[nH]1`, the total growth inhibition concentration (TGI) is 9.69 µM in test [1]; 21 µM in test [2]; 65.7 µM in test [3]; greater than 62.8 µM in test [4]; 35.8 µM in test [5]; greater than 41.1 µM in test [6]. Besides, the concentration for total growth inhibition (TGI) in test [7] is greater than 42.1 µM; in test [8] it was greater than 37.3 µM; in [9], greater than 42.6 µM; in test [10], greater than 100 µM.

`COc1cccc(C(=O)C(O)c2cccc(OC)c2OC)c1OC` (stereo unspecified): the TGI in test [1], in test [2], in test [3], in test [4], in test [5] and in test [6] was greater than 100 µM each time. Moreover, the total growth inhibition concentration (TGI) in [7], in test [8], in test [9] and in test [10] was greater than 100 µM throughout.
